Source: US8389276B2 (priority 2001, dated 2013)
Read-outs that look alike come from different tables or passages of the source.

Columns and labels:
wild type immortal cells = experiment: Death rate of wild type immortalized cells after death stimuli (DAPI staining, FACS); type: cell-based, mouse; conditions: 24 hours, DAPI 1 μg/ml, FIG. 3A
Experimental: (§1) This example relates to determining that immortalized Bax/Bak doubly deficient cells are resistant to wide variety of death stimuli, including BH-3 only proapoptotic proteins. To test whether immortal Bax/Bak double deficient cells behave like primary Bax/Bak double deficient cells in resisting intrinsic cell death stimuli, wild type and Bax/Bak doubly deficient cells were treated with serum deprivation, etoposide (100 μM), staurosporin (4 μM), or brefeldin A (10 μg/ml). 24 hours later, cells were stained with DAPI (1 μg/ml), and death rate determined by FACS. Wild type immortal cells were killed by each of these death stimuli. This is consistent with the findings in the primary MEF cells.

[1] = test system: Bax/Bak doubly deficient cells; experiment: Death rate of Bax/Bak doubly deficient immortalized cells after death stimuli (DAPI staining, FACS); type: cell-based, mouse; conditions: Bax/Bak doubly deficient immortal cells, 24 hours, DAPI 1 μg/ml, FIG. 3A
Experimental: as §1

[2] = test system: primary fibroblasts isolated from Bax/Bak double deficient mice; type: cell-based, mouse
Text: (§2) To study how the apoptotic machinery is regulated, mice deficient in both Bax and Bak have been produced. […] The characteristics of Bax/Bak double deficient mice are described in greater detail in our publications: Lindsten, T., Ross, A. J., King, A., Zong, W. X., Rathmell, J. C., Shiels, H. A., Ulrich, E., Waymire, K. G., Mahar, P., Frauwirth, K., Chen, Y., Wei, M., Eng, V. M., Adelman, D. M., Simon, M. C., Ma, A., Golden, J. A., Evan, G., Korsmeyer, S. J., MacGregor, G. R., and Thompson, C.

[3] = test system: thymocytes isolated from the Bax/Bak double deficient mice
Text: as §2

[4] = primary fibroblasts from Bax/Bak double deficient mice

Q: What does the source list for C[C@H]1CCC/C=C/[C@@H]2C[C@H](O)C[C@H]2[C@H](O)/C=C/C(=O)O1 [brefeldin A]?
A: cell death (death rate by FACS) (wild type immortal cells; brefeldin A 10 μg/ml): killed; cell death (death rate by FACS) ([1]; brefeldin A 10 μg/ml): survived; resistance to death stimulus [2, 4]: resistant

Q: How did the “cell death (death rate by FACS)” value (wild type immortal cells; etoposide 100 μM) turn out when COc1cc([C@@H]2c3cc4c(cc3[C@@H](O[C@@H]3O[C@@H]5CO[C@@H](C)O[C@H]5[C@H](O)[C@H]3O)[C@H]3COC(=O)[C@H]23)OCO4)cc(OC)c1O [etoposide] was run?
A: killed

Q: And the “cell death (death rate by FACS)” value ([1]; etoposide 100 μM)?
A: survived

Q: And the “resistance to death stimulus” value [2, 4]?
A: resistant

Q: And the “resistance to induced cell death” value [3]?
A: resistant

Q: CN[C@@H]1C[C@H]2O[C@@](C)([C@@H]1OC)n1c3ccccc3c3c4c(c5c6ccccc6n2c5c31)C(=O)NC4 [staurosporin] was tested. Which “cell death (death rate by FACS)” value (wild type immortal cells; staurosporin 4 μM) did it give?
A: killed

Q: And the “cell death (death rate by FACS)” value ([1]; staurosporin 4 μM)?
A: survived

Q: What about the “resistance to death stimulus” value [2] of the same compound?
A: resistant

Q: tharpsigargin was tested. Which “resistance to death stimulus” value [2, 4] did it give?
A: resistant

Q: With tunicamycin as the compound, how does the “resistance to death stimulus” value [2, 4] read?
A: resistant
